Assay results published in patent publication US20230104936A1, “TRPML MODULATORS” (Casma Therapeutics, Inc., priority 2019, published 2023).

System: TFEB
Experiment: TFEB nuclear translocation assay, HeLa wt cells
Format: cell-based
Conditions: Homo sapiens, HeLa, 2 h, 2 hrs compound treatment, Table 1 does not say HeLa wt or TRPML1 KO
How it was run: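 TFEB translocation into the nucleus of HeLa wt cells is scored by high-content immunofluorescence after 2 hrs of compound treatment at 37° C, reported as AC50.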

SMILES | AC50 [nM]
CN(C)S(=O)(=O)c1ccc(S(=O)(=O)n2c(=O)n(C3CCN(c4ccc(Cl)cc4F)CC3)c3ccccc32)cc1 [Compound A-63, 4-({3-[1-(4-chloro-2-fluorophenyl)piperidin-4-yl]-2-oxo-2,3-dihydro-1H-1,3-benzodiazol-1-yl}sulfonyl)-N,N-dimethylbenzene-1-sulfonamide] | 2010 to 8000
CN(C)S(=O)(=O)c1ccc(S(=O)(=O)Nc2ccccc2N2CCC3(CC2)CN(Cc2ccccc2)c2cc(F)ccc23)cc1 [Compound A-304, N4-(2-{1-benzyl-6-fluoro-1,2-dihydrospiro[indole-3,4′-piperidin]-1′-yl}phenyl)-N1,N1-dimethylbenzene-1,4-disulfonamide] | ≤ 2000
CC1(C)CC2(CCN(c3ccccc3NS(=O)(=O)c3ccc4c(c3)OC(C)(C)O4)CC2)CO1 [Compound A-704, N-(2-{3,3-dimethyl-2-oxa-8-azaspiro[4.5]decan-8-yl}phenyl)-2,2-dimethyl-2H-1,3-benzodioxole-5-sulfonamide] | ≤ 2000
COCC1(C)CCN(c2ccccc2NS(=O)(=O)Cc2ccc(OC)cc2)CC1 [Compound A-582, N-{2-[4-(methoxymethyl)-4-methylpiperidin-1-yl]phenyl}-1-(4-methoxyphenyl)methanesulfonamide] | 2010 to 8000
C[C@H]1COC[C@H](C)N1CC1CCN(c2c(F)cccc2NS(=O)(=O)c2ccc(S(=N)(=O)N(C)C)cc2)CC1 (single isomer, unassigned) [Compound A-834] | ≤ 2000
O=S(=O)(Nc1cc(Cl)ccc1N1CCCC2(CCCOC2)C1)c1ccc2c(c1)CCC2 (stereo not shown) [Compound A-347, N-(5-chloro-2-{2-oxa-8-azaspiro[5.5]undecan-8-yl}phenyl)-2,3-dihydro-1H-indene-5-sulfonamide] | ≤ 2000
CC(c1ccccc1N1CCC2(CC1)COC(C)(C)C2)S(=O)(=O)Cc1ccccc1 (stereo not shown) [Compound A-751, 3,3-dimethyl-8-[2-(1-phenylmethanesulfonylethyl)phenyl]-2-oxa-8-azaspiro[4.5]decane] | ≥ 10000
CC(N1CCN(c2ccccc2NS(=O)(=O)c2ccc(S(C)(=O)=O)cc2)CC1)C(F)(F)F (stereo not shown) [Compound A-540, 4-methanesulfonyl-N-{2-[4-(1,1,1-trifluoropropan-2-yl)piperazin-1-yl]phenyl}benzene-1-sulfonamide] | ≤ 2000
CN(C)S(=O)(=O)c1ccc(S(=O)(=O)Nc2cccc(F)c2N2CCC(CN3CC4C(C3)C4(F)F)CC2)cc1 (stereo not shown) [Compound A-883, N4-{2-[4-({6,6-difluoro-3-azabicyclo[3.1.0]hexan-3-yl}methyl)piperidin-1-yl]-3-fluorophenyl}-N1,N1-dimethylbenzene-1,4-disulfonamide] | ≤ 2000
CN(C)C1CC2(CCN(c3ccccc3NS(=O)(=O)c3ccc(S(=O)(=O)N(C)C)cc3)CC2)c2ccccc21 (stereo not shown) [Compound A-295, N4-{2-[3-(dimethylamino)-2,3-dihydrospiro[indene-1,4′-piperidin]-1′-yl]phenyl}-N1,N1-dimethylbenzene-1,4-disulfonamide] | 2010 to 8000
CN(C)S(=O)(=O)c1ccc(S(=O)(=O)n2nc(C3CCN(c4c(F)cccc4F)CC3)c3c2CCCC3)cc1 [Compound A-504, 4-({3-[1-(2,6-difluorophenyl)piperidin-4-yl]-4,5,6,7-tetrahydro-1H-indazol-1-yl}sulfonyl)-N,N-dimethylbenzene-1-sulfonamide] | ≤ 2000
COCC1(C)CCN(c2ccccc2NS(=O)(=O)Cc2ccccc2Cl)CC1 [Compound A-601, 1-(2-chlorophenyl)-N-{2-[4-(methoxymethyl)-4-methylpiperidin-1-yl]phenyl}methanesulfonamide] | 2010 to 8000
CCC1(N2CCCCC2)CCN(c2ccccc2NS(=O)(=O)c2ccc(S(=O)(=O)N(C)C)cc2)CC1 [Compound A-475, N4-(2-{4′-ethyl-[1,4′-bipiperidin]-1′-yl}phenyl)-N1,N1-dimethylbenzene-1,4-disulfonamide] | ≤ 2000
CN(C)S(=O)(=O)c1ccc(S(=O)(=O)Nc2ccccc2N2CCC(C)(COC(F)(F)F)CC2)cc1 [Compound A-784, N1,N1-dimethyl-N4-(2-{4-methyl-4-[(trifluoromethoxy)methyl]piperidin-1-yl}phenyl)benzene-1,4-disulfonamide] | ≤ 2000
Cc1ccc(S(=O)(=O)Cc2ccccc2N2CCC(c3ccc(Cl)cc3F)CC2)cc1 [Compound A-138, 4-(4-chloro-2-fluorophenyl)-1-(2-(tosylmethyl)phenyl)piperidine] | ≤ 2000
CC(C)(C)C(=O)N1CCN(c2ccccc2NS(=O)(=O)Cc2cccc3cccnc23)CC1 [Compound A-565, N-{2-[4-(2,2-dimethylpropanoyl)piperazin-1-yl]phenyl}-1-(quinolin-8-yl)methanesulfonamide] | 8010 to 9990
CN(C)S(=O)(=O)c1ccc(S(=O)(=O)Nc2ccccc2N2CCC(COC(F)(F)F)CC2)cc1 [Compound A-696, N1,N1-dimethyl-N4-(2-{4-[(trifluoromethoxy)methyl]piperidin-1-yl}phenyl)benzene-1,4-disulfonamide] | ≤ 2000
CN(C)S(=O)(=O)c1ccc(S(=O)(=O)Nc2ccccc2N2CCN(C(=O)C3(C)CC(F)(F)C3)CC2)cc1 [Compound A-478, N4-{2-[4-(3,3-difluoro-1-methylcyclobutanecarbonyl)piperazin-1-yl]phenyl}-N1,N1-dimethylbenzene-1,4-disulfonamide] | 2010 to 8000
CN(C)S(=O)(=O)c1ccc(S(=O)(=O)Nc2ccccc2C#Cc2ccc(Cl)cc2F)cc1 [Compound A-3, N1-(2-((4-chloro-2-fluorophenyl)ethynyl)phenyl)-N4,N4-dimethylbenzene-1,4-disulfonamide] | ≤ 2000
Cn1ccc2cc(S(=O)(=O)Nc3ccccc3N3CCN(C(=O)C(C)(C)C)CC3)ccc21 [Compound A-515, N-{2-[4-(2,2-dimethylpropanoyl)piperazin-1-yl]phenyl}-1-methyl-1H-indole-5-sulfonamide] | 2010 to 8000
C[C@@H]1CN(CC2CCN(c3ccccc3NS(=O)(=O)c3cnn(CC4CC4)c3)CC2)C[C@H](C)O1 [Compound A-772, 1-(cyclopropylmethyl)-N-[2-(4-[(2R,6S)-2,6-dimethylmorpholin-4-yl]methylpiperidin-1-yl)phenyl]-1H-pyrazole-4-sulfonamide] | 8010 to 9990
CN(C(=O)C1CCN(c2ccccc2NS(=O)(=O)c2ccc(S(=O)(=O)N(C)C)cc2)CC1)C(C)(C)C [Compound A-359, N-tert-butyl-1-{2-[4-(dimethylsulfamoyl)benzenesulfonamido]phenyl}-N-methylpiperidine-4-carboxamide] | ≤ 2000
CN(C)S(=O)(=O)c1ccc(S(=O)(=O)Nc2ccccc2N2CCC(c3cccc(F)c3C(=O)O)CC2)cc1 [Compound A-358, 2-(1-{2-[4-(dimethylsulfamoyl)benzenesulfonamido]phenyl}piperidin-4-yl)-6-fluorobenzoic acid] | ≥ 10000
COc1ccc(S(=O)(=O)Nc2ccccc2N(C)c2ccc(F)cc2F)cc1 [Compound A-199, N-{2-[(2,4-difluorophenyl)(methyl)amino]phenyl}-4-methoxybenzene-1-sulfonamide] | ≥ 10000
CC1(C)CC2(CCN(c3ccccc3NS(=O)(=O)Cc3cccc(Cl)c3)CC2)CO1 [Compound A-678, 1-(3-chlorophenyl)-N-(2-{3,3-dimethyl-2-oxa-8-azaspiro[4.5]decan-8-yl}phenyl)methanesulfonamide] | ≤ 2000
